Results on 46 compounds are retold here after patent US10960087B2, “Compositions and methods for treatment of diabetic retinopathy” (NOVARTIS AG, priority 2007, dated 2021).

The test system of data set [1] is HuT 78 cell adhesion to 5dICAM-Ig. Put plainly: Human T-cell adhesion assay (HuT 78). The data set is classed as cell-based. Conditions: HuT78, HuT 78 adhesion to 5dICAM-Ig. As for the experimental part: The T-cell adhesion assay was performed using the human T-lymphoid cell line HuT 78 (ATCC TIB-161). Goat anti-HuIgG(Fc) was diluted to 2 μg/ml in PBS and 96-well plates were coated with 50 μl/well at 37° C. for 1 h. Plates were washed with PBS and blocked for 1 h at room temperature with 1% BSA in PBS. 5 domain ICAM-Ig was diluted to 100 ng/ml in PBS and 50 μl/well was added to the plates 0/N at 4° C. HuT 78 cells were centrifuged at 100 g and the cell pellet was treated with 5 mM EDTA for ˜5′ at 37° C. in a 5% CO2 incubator. Cells were washed in 0.14 M NaCl, 0.02 M Hepes, 0.2% glucose and 0.1 mM MnCl2 (assay buffer) and centrifuged. The cells were resuspended in assay buffer to 3.0×10^6 c/ml. Inhibitors were diluted in assay buffer to a 2× final concentration and pre-incubated with HuT78 cells for 30′ at room temperature. 100 μl/well of cells and inhibitors were added to the plates and incubated at room temperature for 1 h. 100 μl/well PBS was added and the plates were sealed and centrifuged inverted at 100 g for 5′. Unattached cells were flicked out of the plate and excess PBS was blotted on a paper towel. 60 μl/well p-nitrophenyl n-acetyl-β-D-glucosaminide (0.257 g to 100 ml citrate buffer) was added to the plate and incubated for 1.5 h at 37° C. The enzyme reaction was stopped with 90 μI/well 50 mM glycine/5 mM EDTA and read on a platereader at […]. HUT 78 cell adhesion to 5dICAM-Ig was measured using the p-nitrophenyl n-acetyl-.β-D-glucosaminide method of Landegren, U. (1984). J. Immunol. Methods 57, 379-388.

A further data set is described as follows: Solubility. The data set is classed as physicochemical.

Turning to `O=C(N[C@@H](Cc1c[nH]cn1)C(=O)O)c1c(Cl)cc2c(c1Cl)CCN(C(=O)c1ccc(Cl)cc1)C2` [Compound 1], the half-maximal effective concentration (EC50) – broadly, the concentration at which the effect is half-maximal – in data set [1] is ≤ 300 nM. Consider `O=C(NC[C@H](NC(=O)c1c(Cl)cc2c(c1Cl)CCN(C(=O)c1cccc(Cl)c1)C2)C(=O)O)c1cccs1` [Compound 2], for which the solubility (commonly how much of the substance goes into solution per volume) in “Solubility” was > 100 mg/mL. Also, the EC50 in data set [1] is ≤ 50 nM. Consider `O=C(N[C@@H](CNc1ncnc2ccccc12)C(=O)O)c1c(Cl)cc2c(c1Cl)CCN(C(=O)c1ccc(Cl)cc1)C2` [Compound 3], for which the EC50 in data set [1] was ≤ 50 nM. For `C=C(C)c1cn(C[C@H](NC(=O)c2c(Cl)cc3c(c2Cl)CCN(C(=O)c2ccc(Cl)cc2)C3)C(=O)O)nn1` [Compound 4], the EC50 in data set [1] is ≤ 100 nM. Regarding `O=C(NC[C@H](NC(=O)c1c(Cl)cc2c(c1Cl)CCN(C(=O)c1ccc(Cl)cc1)C2)C(=O)O)c1ccccc1` [Compound 5], in data set [1], the EC50 was ≤ 50 nM. Take `CCc1c(C(=O)N[C@@H](CNC(=O)c2cccs2)C(=O)O)c2ccccc2n(CCCc2ccccc2)c1=O` [Compound 6]: the solubility in “Solubility” is > 100 mg/mL. The concentration for a half-maximal effect (EC50) in data set [1] was ≤ 50 nM. As for `CS(=O)(=O)c1nc(C[C@H](NC(=O)c2c(Cl)cc3c(c2Cl)CCN(C(=O)c2ccc(Cl)cc2)C3)C(=O)O)c[nH]1` [Compound 7], in data set [1], the EC50 was ≤ 50 nM.

For the compound `O=C(N[C@@H](Cn1cc(CO)nn1)C(=O)O)c1c(Cl)cc2c(c1Cl)CCN(C(=O)c1ccc(Cl)cc1)C2` [Compound 8], the EC50 in data set [1] is ≤ 100 nM.

As for `C[S+]([O-])c1cc(F)cc(C[C@H](NC(=O)c2c(Cl)cc3c(c2Cl)CCN(C(=O)c2ccc(Cl)cc2)C3)C(=O)O)c1` (stereo partly shown) [Compound 9], in the data set “Solubility”, the solubility is > 50 mg/mL. Moreover, in data set [1], the concentration for a half-maximal effect (EC50) is ≤ 50 nM. On to `CN1CCN(C(=O)[C@H](CNC(=O)c2cccs2)NC(=O)c2c(Cl)cc3c(c2Cl)CCN(C(=O)c2ccc(Cl)cc2)C3)CC1` [Compound 10], for which the solubility in the data set “Solubility” was > 100 mg/mL. Regarding `O=C(NC[C@H](NC(=O)c1cc2c(cc1Cl)C(=O)N(Cc1ccccc1)CC2)C(=O)O)c1cccs1` [Compound 11], in data set [1], the EC50 is ≤ 3000 nM.

On to `CS(=O)(=O)c1cccc(C[C@H](NC(=O)c2c(Cl)cc3c(c2Cl)CCN(C(=O)c2ccc4ccoc4c2)C3)C(=O)O)c1` [Compound 12], for which the solubility in “Solubility” was > 100 mg/mL. For the same compound, the EC50 in data set [1] is ≤ 50 nM. On to `O=C(NC[C@H](NC(=O)c1c(Cl)cc2c(c1Cl)CCN(C(=O)c1ccc3cc[nH]c3c1)C2)C(=O)O)c1cccs1` [Compound 13], for which the EC50 in data set [1] was ≤ 50 nM. Take `C[S+]([O-])c1cncc(C[C@H](NC(=O)c2c(Cl)cc3c(c2Cl)CCN(C(=O)c2ccc4ccoc4c2)C3)C(=O)O)c1` (stereo partly shown) [Compound 14]: in data set [1], the concentration for a half-maximal effect (EC50) is ≤ 50 nM.

With `CS(=O)(=O)c1cccc(C[C@H](NC(=O)c2c(Cl)cc3c(c2Cl)CCN(C(=O)c2ccc4cn[nH]c4c2)C3)C(=O)O)c1` [Compound 15], the solubility in “Solubility” was > 100 mg/mL. For the same compound, the concentration giving a half-maximal response (EC50) in data set [1] was ≤ 50 nM. As to `CS(=O)(=O)c1cccc(C[C@H](NC(=O)c2c(Cl)cc3c(c2Cl)CCN(C(=O)c2cc4ccccc4cn2)C3)C(=O)O)c1` [Compound 16], the solubility in “Solubility” was > 100 mg/mL. In data set [1], the concentration giving a half-maximal response (EC50) was ≤ 50 nM. Take `O=C(NC[C@H](NC(=O)c1c(Cl)cc2c(c1Cl)CCN(C(=O)c1ccc(Cl)cc1)C2CO)C(=O)O)c1cccs1` (stereo partly shown) [Compound 17]: the EC50 in data set [1] is ≤ 50 nM. `O=C(NC[C@H](NC(=O)c1c(Cl)cc2c(c1Cl)CCN(C(=O)c1ccc(Cl)c(Cl)c1)C2)C(=O)O)c1cccs1` [Compound 18]: in data set [1], the concentration giving a half-maximal response (EC50) was ≤ 50 nM.

Consider `CS(=O)(=O)c1cccc(C[C@H](NC(=O)c2c(Cl)cc3c(c2Cl)CCN(C(=O)c2cc4cccnc4[nH]2)C3)C(=O)O)c1` [Compound 19], for which the solubility in “Solubility” is > 50 mg/mL. Moreover, in data set [1], the concentration giving a half-maximal response (EC50) is ≤ 50 nM.

In the case of `CS(=O)(=O)c1ccc(C[C@H](NC(=O)c2c(Cl)cc3c(c2Cl)CCN(C(=O)c2cc4cccnc4[nH]2)C3)C(=O)O)o1` [Compound 20], the solubility in the data set “Solubility” was > 100 mg/mL. Besides, the half-maximal effective concentration (EC50) in data set [1] was ≤ 50 nM. Regarding `O=C(NC[C@H](NC(=O)c1c(Cl)cc2c(c1Cl)CCN(C(=O)Nc1cccc(Cl)c1)C2)C(=O)O)c1cccs1` [Compound 21], the solubility in the data set “Solubility” is > 100 mg/mL. Also, in data set [1], the concentration giving a half-maximal response (EC50) was ≤ 50 nM. As to `CS(=O)(=O)c1ccn(C[C@H](NC(=O)c2c(Cl)cc3c(c2Cl)CCN(C(=O)c2ccc4ccoc4c2)C3)C(=O)O)c1` [Compound 22], the EC50 in data set [1] was ≤ 50 nM. With `CS(=O)(=O)N1CCC=C(C[C@H](NC(=O)c2c(Cl)cc3c(c2Cl)CCN(C(=O)c2ccc4ccoc4c2)C3)C(=O)O)C1` [Compound 23], the EC50 in data set [1] is ≤ 50 nM. On the same count and under the same terms, under `CC(C)n1cc(C[C@H](NC(=O)c2c(Cl)cc3c(c2Cl)CCN(C(=O)c2ccc(Cl)cc2)C3)C(=O)O)nn1` [Compound 24] stands ≤ 100 nM.

In the case of `CS(=O)(=O)c1cc(F)cc(C[C@H](NC(=O)c2c(Cl)cc3c(c2Cl)CCN(C(=O)c2ccc4ccoc4c2)C3)C(=O)O)c1` [Compound 25], the solubility in the data set “Solubility” was > 100 mg/mL. Also, the EC50 in data set [1] is ≤ 50 nM. As for `N#CN=C(NC[C@H](NC(=O)c1c(Cl)cc2c(c1Cl)CCN(C(=O)/C=C/c1ccccc1O)C2)C(=O)O)N1CC[C@H](O)C1` [Compound 26], the 50% effective concentration (EC50) in data set [1] is ≤ 50 nM. Consider `CS(=O)(=O)c1cccc(C[C@H](NC(=O)c2c(Cl)cc3c(c2Cl)CCN(C(=O)/C=C/c2ccccc2F)C3)C(=O)O)c1` [Compound 27], for which the solubility in the data set “Solubility” is > 100 mg/mL. Further, in data set [1], the concentration for a half-maximal effect (EC50) was ≤ 50 nM.

With `CS(=O)(=O)c1cccc(C[C@H](NC(=O)c2c(Cl)cc3c(c2Cl)CCN(C(=O)c2ccc(Cl)cc2)C3)C(=O)O)c1` [Compound 28], the EC50 in data set [1] was ≤ 50 nM.

With `Cc1cc2c(=O)n(Cc3ccccc3)ncc2cc1C(=O)N[C@@H](CNC(=O)c1cccs1)C(=O)O` [Compound 29], the solubility in “Solubility” was > 50 mg/mL. For the same compound, the EC50 in data set [1] is ≤ 3000 nM. For `Cc1oc(C[C@H](NC(=O)c2c(Cl)cc3c(c2Cl)CCN(C(=O)c2ccc4ccoc4c2)C3)C(=O)O)cc1S(C)(=O)=O` [Compound 30], the half-maximal effective concentration (EC50) in data set [1] was ≤ 50 nM.

Take `O=C(NC[C@H](NC(=O)c1c(Cl)cc2c(c1Cl)CCN(C(=O)c1ccc3ccoc3c1)C2)C(=O)O)c1cccc(F)c1` [Compound 31]: in “Solubility”, the solubility is > 50 mg/mL. The EC50 in data set [1] was ≤ 50 nM. As to `O=C(NC[C@H](NC(=O)c1c(Cl)cc(CCC(O)c2cccc(O)c2)cc1Cl)C(=O)O)c1cccs1` (stereo partly shown) [Compound 32], the solubility in the data set “Solubility” is > 50 mg/mL. In data set [1], the EC50 is ≤ 50 nM.

`CS(=O)(=O)c1cncc(C[C@H](NC(=O)c2c(Cl)cc3c(c2Cl)CCN(C(=O)c2ccc4ccoc4c2)C3)C(=O)O)c1` [Compound 33]: the EC50 in data set [1] was ≤ 50 nM. Take `O=C(NC[C@H](NC(=O)c1c(Cl)cc2c(c1Cl)CCN(C(=O)c1ccc3cn[nH]c3c1)C2)C(=O)O)c1cccs1` [Compound 34]: the EC50 in data set [1] is ≤ 50 nM. For the compound `O=C(NC[C@H](NC(=O)c1c(Cl)cc2c(c1Cl)CCN(C(=O)c1cc(O)nc3ccccc13)C2)C(=O)O)c1cccs1` [Compound 35], the solubility in the data set “Solubility” is > 100 mg/mL. Moreover, in data set [1], the concentration giving a half-maximal response (EC50) is ≤ 50 nM. Regarding `CS(=O)(=O)c1cccc(C[C@H](NC(=O)c2c(Cl)cc3c(c2Cl)CCN(C(=O)c2cc4ccccc4[nH]2)C3)C(=O)O)c1` [Compound 36], the solubility in the data set “Solubility” is > 50 mg/mL. Moreover, the EC50 in data set [1] was ≤ 50 nM.

`CS(=O)(=O)c1cccc(C[C@H](NC(=O)c2c(Cl)cc(CCC(O)c3ccc(Cl)cc3)cc2Cl)C(=O)O)c1` (stereo partly shown) [Compound 37]: the EC50 in data set [1] was ≤ 100 nM. With `O=C(NC[C@H](NC(=O)c1c(Cl)cc2c(c1Cl)CCN(C(=O)c1cc3ccccc3o1)C2)C(=O)O)c1cccs1` [Compound 38], in data set [1], the 50% effective concentration (EC50) was ≤ 50 nM. Same read-out and setting: under `CS(=O)(=O)Nc1ccccc1NC[C@H](NC(=O)c1c(Cl)cc2c(c1Cl)CCN(C(=O)c1ccc(Cl)cc1)C2)C(=O)O` [Compound 39] stands ≤ 50 nM; under `CS(=O)(=O)n1cc(C[C@H](NC(=O)c2c(Cl)cc3c(c2Cl)CCN(C(=O)/C=C/c2ccco2)C3)C(=O)O)c2ccccc21` [Compound 40], ≤ 300 nM. As for `CS(=O)(=O)c1ccc(C[C@H](NC(=O)c2c(Cl)cc3c(c2Cl)CCN(C(=O)c2ccc4ccoc4c2)C3)C(=O)O)o1` [Compound 41], the solubility in the data set “Solubility” was > 100 mg/mL. Also, in data set [1], the half-maximal effective concentration (EC50) was ≤ 50 nM.

In the case of `CS(=O)(=O)CCNC[C@H](NC(=O)c1c(Cl)cc2c(c1Cl)CCN(C(=O)c1ccc(Cl)cc1)C2)C(=O)O` [Compound 42], the solubility in “Solubility” is > 100 mg/mL. Also, the 50% effective concentration (EC50) in data set [1] is ≤ 3000 nM.

As to `CS(=O)(=O)c1cccc(C[C@H](NC(=O)c2c(Cl)cc(CNC(=O)/C=C/c3ccccc3O)cc2Cl)C(=O)O)c1` [Compound 43], the EC50 in data set [1] is ≤ 50 nM.

Regarding `O=C(CCc1cc(Cl)c(C(=O)N[C@@H](CNC(=O)c2cccs2)C(=O)O)c(Cl)c1)c1cccc(O)c1` [Compound 47], in data set [1], the EC50 is ≤ 50 nM.

`C[C@H](O)c1cccc(C[C@H](NC(=O)c2c(Cl)cc3c(c2Cl)CCN(C(=O)c2ccc4cn[nH]c4c2)C3)C(=O)O)c1` [Compound 48]: the 50% effective concentration (EC50) in data set [1] is ≤ 50 nM. Still for that read-out and setting: the result for `CP(C)(=O)c1cccc(C[C@H](NC(=O)c2c(Cl)cc3c(c2Cl)CCN(C(=O)c2ccc4ccoc4c2)C3)C(=O)O)c1` [Compound 49] reads ≤ 100 nM.
